Results on one molecule are retold here after patent US12514938B2, “Fibroblast activation protein targeting peptides” (PERSPECTIVE THERAPEUTICS, INC., priority 2023, dated 2026).

Each structure is given as a SMILES string. pKd, pKi: −log10 of the molar value. *1 amine or outer side, *2 acyl side, *3 side chain or, on linkers, in order; H or OH if unused. Where a SMILES comes first, the peptide text is derived from it. Bridges are numbered along the chain shown (N, C = ends). The star is where a group is joined. X1 = NC(=O)CN1CCN(CC(=O)O)CCN(CC(=O)*)CCN(CC(=O)O)CC1; oXylylene = c1ccc(C[*:2])c(C[*:1])c1; PEG2 = NCCOCCOCCC(=O)O

For experiment [1], the target named is T1, Human Fibroblast Activation Protein (FAP) (Homo sapiens, UniProt Q12884).
T1 sequence (Q12884 1-760): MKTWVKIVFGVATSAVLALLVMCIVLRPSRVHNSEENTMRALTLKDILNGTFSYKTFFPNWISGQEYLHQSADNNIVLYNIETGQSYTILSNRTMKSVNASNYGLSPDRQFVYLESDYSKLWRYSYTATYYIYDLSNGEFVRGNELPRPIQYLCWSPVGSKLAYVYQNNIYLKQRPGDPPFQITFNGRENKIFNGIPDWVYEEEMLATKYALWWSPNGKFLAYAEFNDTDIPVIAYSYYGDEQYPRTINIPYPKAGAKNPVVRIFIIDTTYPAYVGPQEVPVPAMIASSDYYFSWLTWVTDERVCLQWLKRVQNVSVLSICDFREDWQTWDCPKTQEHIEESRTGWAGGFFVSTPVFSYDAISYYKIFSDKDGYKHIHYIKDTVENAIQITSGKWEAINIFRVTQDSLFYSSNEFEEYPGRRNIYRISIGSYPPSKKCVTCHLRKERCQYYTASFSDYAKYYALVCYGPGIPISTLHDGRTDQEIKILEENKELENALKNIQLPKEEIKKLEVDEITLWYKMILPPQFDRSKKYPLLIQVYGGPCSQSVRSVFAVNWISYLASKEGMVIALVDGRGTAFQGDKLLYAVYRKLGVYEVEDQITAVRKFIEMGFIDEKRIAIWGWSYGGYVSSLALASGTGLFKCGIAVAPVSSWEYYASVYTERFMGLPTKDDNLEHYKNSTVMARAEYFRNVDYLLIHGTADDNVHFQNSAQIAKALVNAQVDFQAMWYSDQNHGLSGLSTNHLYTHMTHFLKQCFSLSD
As to the kind of experiment: Enzyme inhibition assay against human FAP (substrate Z-GP-AMC), Example 1. In kind it is biochemical. As to conditions: human FAP 5 ng/well, 50 μM Z-GP-AMC; Ki from IC50 by Cheng-Prusoff. The procedure, abridged: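 FAP (5 ng/well) preincubated 10 min at RT with peptide (10^−6 to 10^−12), then 50 μM Z-GP-AMC added for 1 h at RT, protected from light. Buffer 50 mM Tris-HCl, 1 M NaCl, 1 mg/mL BSA, pH 7.5; fluorescence at ex/em 360/460. IC50 from non-linear regression, converted to Ki via Cheng-Prusoff using known substrate Km.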

In experiment [2] the target is T2, human prolyl endopeptidase (PREP) (Homo sapiens, UniProt P48147).
T2 sequence (P48147 1-710): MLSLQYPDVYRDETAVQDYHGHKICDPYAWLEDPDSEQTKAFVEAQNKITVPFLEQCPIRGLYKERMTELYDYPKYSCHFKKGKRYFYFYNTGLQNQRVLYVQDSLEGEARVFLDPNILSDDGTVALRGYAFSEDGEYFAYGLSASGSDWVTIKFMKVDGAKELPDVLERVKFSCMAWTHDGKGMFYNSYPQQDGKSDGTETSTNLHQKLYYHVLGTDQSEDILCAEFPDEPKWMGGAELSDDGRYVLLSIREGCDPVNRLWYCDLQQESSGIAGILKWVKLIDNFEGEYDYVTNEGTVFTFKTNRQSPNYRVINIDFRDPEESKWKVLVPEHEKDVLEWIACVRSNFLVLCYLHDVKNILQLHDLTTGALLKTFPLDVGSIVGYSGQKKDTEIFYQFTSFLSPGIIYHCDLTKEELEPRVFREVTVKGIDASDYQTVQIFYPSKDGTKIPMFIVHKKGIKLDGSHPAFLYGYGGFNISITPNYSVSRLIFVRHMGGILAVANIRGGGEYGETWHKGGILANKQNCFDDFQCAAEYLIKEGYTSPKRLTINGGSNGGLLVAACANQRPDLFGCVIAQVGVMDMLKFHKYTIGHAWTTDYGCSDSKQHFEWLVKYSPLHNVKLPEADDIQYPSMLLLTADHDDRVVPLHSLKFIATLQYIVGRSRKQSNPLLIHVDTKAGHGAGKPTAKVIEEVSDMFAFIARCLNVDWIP
As to the kind of experiment: Enzyme inhibition assay, binding specificity of VMT-FAP-2-59 (Example 3). In kind it is biochemical. As to conditions: 50 μM Z-GP-AMC. How it is done:
(§1) The enzyme inhibition assay was performed to determine inhibitor constant (i.e., Ki) values against human FAP, mouse FAP, human dipeptidyl peptidase 4 (DPPIV) and human prolyl endopeptidase (PREP). Z-GP-AMC was used as substrate for human FAP, mouse FAP and human PREP. GP-AMC was used as substrate for human DPPIV. To perform the assay, VMT-FAP-2-59 at varying concentrations (i.e. 10^−6 to 10^−12) were incubated with 5 ng hFAP, 5 ng mFAP, 2.5 ng DPPIV, or 5 ng PREP in a black 96-well plate for 10 minutes at RT on a shaker plate. The substrate was added to give a final concentration of 50 μM for Z-GP-AMC and GP-AMC. The total reaction volume per well was 100 μL The reaction was allowed to incubate at RT on a shaker plate for 1 hour protected from light, and then fluorescence was read with a BioTek Synergy LX plate reader at an ex/em (360/40 and 460/40). Experiments were performed in at least duplicate. Buffer only, buffer/enzymes, buffer/substrate and enzyme only were included as controls. Data was plotted in GraphPad Prism and non-linear regression used to calculate IC50 values. Binding kinetics (Kd) of VMT-FAP-2-59 against human FAP, human DPPIV and human PREP were also determined by grating-coupled interferometry (GCI). hFAP, hDPPIV and hPREP proteins were fixed on PCH (N=3) chips or PCP (N=2). […] On PCP chips, binding affinity of VMT-FAP-2-29 to hFAP was determined from 39 pM to 20 nM. Binding affinity to hDPPIV and hPREP was determined at concentration from 39 pM to 50 nM.

For experiment [3], the target named is human dipeptidyl peptidase 4 (DPPIV) (Homo sapiens, UniProt P27487). As to the kind of experiment: Enzyme inhibition assay, binding specificity of VMT-FAP-2-59 (Example 3, substrate GP-AMC). Conditions: 50 μM GP-AMC. In kind it is biochemical. How it is done:
as §1, with “Binding affinity to hDPPIV and hPREP was determined at concentration from 39 pM to 50 nM.” left out

In another experiment the target is human DPPIV (Homo sapiens, UniProt P27487). As to the kind of experiment: Grating-coupled interferometry (GCI) binding kinetics. How it is done: as §1
In the next experiment the target is T3, human FAP (Homo sapiens, UniProt Q12884).
T3 sequence (Q12884 1-760): T1 sequence (Q12884 1-760)
The description is as above. As to conditions: GCI on PCH/PCP chips. Here is the method: as §1

The next experiment has as its target T4, human PREP (Homo sapiens, UniProt P48147).
T4 sequence (P48147 1-710): T2 sequence (P48147 1-710)
The description is as above. Here is the method:
as §1

Sequence of human DPPIV (P27487 whole entry): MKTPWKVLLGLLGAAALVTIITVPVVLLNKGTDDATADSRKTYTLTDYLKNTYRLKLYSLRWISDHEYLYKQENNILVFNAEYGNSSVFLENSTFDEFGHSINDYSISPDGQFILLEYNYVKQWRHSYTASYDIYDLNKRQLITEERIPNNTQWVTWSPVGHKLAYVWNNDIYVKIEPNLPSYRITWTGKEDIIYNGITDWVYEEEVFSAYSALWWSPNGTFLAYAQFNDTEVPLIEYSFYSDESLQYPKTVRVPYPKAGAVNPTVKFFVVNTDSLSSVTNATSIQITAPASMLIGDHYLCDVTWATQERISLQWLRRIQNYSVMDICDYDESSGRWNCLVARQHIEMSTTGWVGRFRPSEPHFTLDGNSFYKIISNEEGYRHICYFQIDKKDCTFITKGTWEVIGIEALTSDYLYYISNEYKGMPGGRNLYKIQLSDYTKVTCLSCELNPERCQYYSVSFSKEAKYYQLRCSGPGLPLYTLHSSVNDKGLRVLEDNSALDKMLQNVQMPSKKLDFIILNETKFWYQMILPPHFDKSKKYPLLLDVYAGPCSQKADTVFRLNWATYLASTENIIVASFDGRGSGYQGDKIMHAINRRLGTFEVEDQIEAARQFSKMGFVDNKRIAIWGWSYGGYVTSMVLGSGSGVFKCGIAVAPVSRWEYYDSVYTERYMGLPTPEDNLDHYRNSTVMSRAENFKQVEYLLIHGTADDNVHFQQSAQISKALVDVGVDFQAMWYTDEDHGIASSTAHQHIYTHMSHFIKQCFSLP
Sequence of human dipeptidyl peptidase 4 (DPPIV) (P27487 whole entry): as above

With `C[C@@H](O)[C@@H]1NC(=O)[C@@H](NC(=O)CCOCCOCCNC(=O)CN2CCN(CC(=O)O)CCN(CC(N)=O)CCN(CC(=O)O)CC2)CSCc2ccccc2CSC[C@@H](C(N)=O)NC(=O)[C@H](Cc2c[nH]c3ccccc23)NC(=O)[C@H](Cc2c[nH]c3ccccc23)NC(=O)[C@H](CCC(N)=O)NC(=O)[C@H](CCC(=O)O)NC(=O)[C@H](Cc2c[nH]c3ccccc23)NC(=O)[C@@H]2CCCN2C1=O` [VMT-FAP-2-59, PSC-PEG2-[C(oXdB)TPWEQWWC]-NH2] ({X1-PEG2}-CTPWEQWWC-NH2; linker 1-9 via oXylylene), the negative-log Ki (pKi) (commonly the Ki on a negative log10 scale, so that one unit is a factor of ten) in experiment [1] is 9.44; in experiment [2], 6.82. The Ki result in experiment [3] is “No binding”. Also, the Kd entry at human DPPIV and on human PREP was “No binding” each time. For the same molecule, the pKd (usually the Kd on a negative log10 scale, so that one unit is a factor of ten) on human FAP was 8.70.
